Calls of active or inactive are those of the source. The rule behind the calls is not given here.
The compounds below were run on MCF7 (assay: Down regulation of RAC1 gene expression in human MCF7 cells by microarray). Details: not given.
Format: functional, cell-based

How did the Activity turn out when O=[N+]([O-])c1ccc(S(=O)(=O)N2CC(n3cnc4ncnc(Sc5ccccc5)c43)OCc3ccccc32)cc1 (stereo unspecified) was run?
The Activity was “Active”.

The compounds below were run on MCF7 (assay: Antiproliferative activity against human MCF7 cells). Details: Homo sapiens, MCF7.
Format: functional, cell-based

For Ic1ncnc2ncn(C3COc4ccccc4CO3)c12 (stereo unspecified), which IC50 is on record?
Its IC50 is 1.25 µM.

COC(CN(c1ccccc1CO)S(=O)(=O)c1ccc([N+](=O)[O-])cc1)n1ccc(=O)[nH]c1=O (stereo unspecified) was tested. Which IC50 did it give?
Its IC50 is 45.8 µM.

O=C(OCC1c2ccccc2-c2ccccc21)N1CC(n2cnc3ncnc(Cl)c32)OCc2ccccc21 (stereo unspecified) was tested. Which IC50 did it give?
Its IC50 is 0.84 µM.

For COC(CN(c1ccccc1CO)S(=O)(=O)c1ccccc1[N+](=O)[O-])n1cc(F)c(=O)[nH]c1=O (stereo unspecified), which IC50 is on record?
The IC50 was 91 µM.

For O=c1[nH]c(=O)n(C2CN(S(=O)(=O)c3ccc([N+](=O)[O-])cc3)c3ccccc3CO2)cc1F (stereo unspecified), which IC50 is on record?
Its IC50 is 19.3 µM.

For Nc1ccccc1S(=O)(=O)N1CC(n2c(=O)[nH]cc(F)c2=O)OCc2ccccc21 (stereo unspecified), which IC50 is on record?
The IC50 was 43.7 µM.

How did the IC50 turn out when COC(CN(c1ccccc1CO)S(=O)(=O)c1ccccc1N)n1cc(F)c(=O)[nH]c1=O (stereo unspecified) was run?
The IC50 was > 100 µM.

Which IC50 does the source give for COC(CN(C(=O)c1ccccc1)c1ccccc1CO)n1cc(F)c(=O)[nH]c1=O (stereo unspecified) here?
The IC50 was 16.1 µM.

For O=C(OCC1c2ccccc2-c2ccccc21)N1CC(n2cnc3ncnc(O)c32)OCc2ccccc21 (stereo unspecified), which IC50 is on record?
Its IC50 is 53.6 µM.

O=c1cc[nH]c(=O)n1C1CN(S(=O)(=O)c2ccccc2[N+](=O)[O-])c2ccccc2CO1 (stereo unspecified) was tested. Which IC50 did it give?
Its IC50 is 50.9 µM.

Which IC50 does the source give for O=[N+]([O-])c1ccc(S(=O)(=O)N2CC(n3cnc4c(Cl)ncnc43)OCc3ccccc32)cc1 (stereo unspecified) here?
The IC50 was 2.73 µM.

With COc1ccc2c(c1)COC(n1cc(F)c(=O)[nH]c1=O)CO2 (stereo unspecified) as the compound, how does the IC50 read?
The IC50 was 1.25 µM.

For COC(CN(c1ccccc1CO)S(=O)(=O)c1ccc([N+](=O)[O-])cc1)n1c(=O)cc[nH]c1=O (stereo unspecified), which IC50 is on record?
The IC50 was 55.2 µM.

For O=c1[nH]cc(F)c(=O)n1C1CN(S(=O)(=O)c2ccc([N+](=O)[O-])cc2)c2ccccc2CO1 (stereo unspecified), which IC50 is on record?
Its IC50 is 19.8 µM.

How did the IC50 turn out when O=c1cc[nH]c(=O)n1C1CN(S(=O)(=O)c2ccc([N+](=O)[O-])cc2)c2ccccc2CO1 (stereo unspecified) was run?
The IC50 was 44.3 µM.

For Nc1ccc(S(=O)(=O)N2CC(n3cc(F)c(=O)[nH]c3=O)OCc3ccccc32)cc1 (stereo unspecified), which IC50 is on record?
Its IC50 is 14.4 µM.

How did the IC50 turn out when FC(F)(F)c1ncnc2c1ncn2C1COc2ccccc2CO1 (stereo unspecified) was run?
The IC50 was 1.25 µM.

Which IC50 does the source give for O=c1[nH]cc(F)c(=O)n1C1CN(S(=O)(=O)c2ccccc2[N+](=O)[O-])c2ccccc2CO1 (stereo unspecified) here?
Its IC50 is 22.6 µM.

Which IC50 does the source give for Nc1ccccc1S(=O)(=O)N1CC(n2cnc3ncnc(Cl)c32)OCc2ccccc21 (stereo unspecified) here?
The IC50 was 9.14 µM.

For O=c1ccn(C2CN(S(=O)(=O)c3ccc([N+](=O)[O-])cc3)c3ccccc3CO2)c(=O)[nH]1 (stereo unspecified), which IC50 is on record?
The IC50 was 39.8 µM.

For Clc1nc(Cl)c2c(ncn2C2COc3ccccc3CO2)n1 (stereo unspecified), which IC50 is on record?
Its IC50 is 1.25 µM.

Which IC50 does the source give for Ic1ncnc2c1ncn2C1COc2ccccc2CO1 (stereo unspecified) here?
The IC50 was 1.25 µM.

For O=[N+]([O-])c1ccc(S(=O)(=O)N2CC(n3cnc4ncnc(Sc5ccccc5)c43)OCc3ccccc32)cc1 (stereo unspecified), which IC50 is on record?
Its IC50 is 0.86 µM.

O=[N+]([O-])c1ccccc1S(=O)(=O)N1CC(n2cnc3ncnc(Sc4ccccc4)c32)OCc2ccccc21 (stereo unspecified) was tested. Which IC50 did it give?
Its IC50 is 2.59 µM.

With Clc1nc(Cl)c2ncn(C3COc4ccccc4CO3)c2n1 (stereo unspecified) as the compound, how does the IC50 read?
Its IC50 is 1.25 µM.

O=[N+]([O-])c1ccccc1S(=O)(=O)N1CC(n2cnc3ncnc(Cl)c32)OCc2ccccc21 (stereo unspecified) was tested. Which IC50 did it give?
The IC50 was 0.92 µM.

With O=[N+]([O-])c1ccccc1S(=O)(=O)N1CC(n2cnc3ncnc(O)c32)OCc2ccccc21 (stereo unspecified) as the compound, how does the IC50 read?
Its IC50 is 19.7 µM.

How did the IC50 turn out when Clc1ncnc2c1ncn2C1COc2ccccc2CO1 (stereo unspecified) was run?
The IC50 was 1.25 µM.

With O=c1ccn(C2CN(S(=O)(=O)c3ccccc3[N+](=O)[O-])c3ccccc3CO2)c(=O)[nH]1 (stereo unspecified) as the compound, how does the IC50 read?
Its IC50 is 45.2 µM.

With Nc1ccccc1S(=O)(=O)N1CC(n2cc(F)c(=O)[nH]c2=O)OCc2ccccc21 (stereo unspecified) as the compound, how does the IC50 read?
The IC50 was 54.8 µM.

COC(CN(c1ccccc1CO)S(=O)(=O)c1ccc([N+](=O)[O-])cc1)n1cnc2c(Cl)ncnc21 (stereo unspecified) was tested. Which IC50 did it give?
The IC50 was 18.7 µM.

With Clc1ncnc2ncn(C3COc4ccccc4CO3)c12 (stereo unspecified) as the compound, how does the IC50 read?
Its IC50 is 1.25 µM.

For Clc1ncnc2ncn(C3CSc4ccccc4CO3)c12 (stereo unspecified), which IC50 is on record?
Its IC50 is 1.25 µM.

How did the IC50 turn out when O=c1[nH]cc(F)c(=O)n1C1CNc2ccccc2CO1 (stereo unspecified) was run?
The IC50 was 72.4 µM.

Which IC50 does the source give for O=[N+]([O-])c1ccc(S(=O)(=O)N2CC(n3cnc4ncnc(O)c43)OCc3ccccc32)cc1 (stereo unspecified) here?
Its IC50 is > 100 µM.

COC(CN(c1ccccc1CO)S(=O)(=O)c1ccccc1[N+](=O)[O-])n1ccc(=O)[nH]c1=O (stereo unspecified) was tested. Which IC50 did it give?
Its IC50 is 64.8 µM.

O=[N+]([O-])c1ccc(S(=O)(=O)N2CC(n3cnc4ncnc(Cl)c43)OCc3ccccc32)cc1 (stereo unspecified) was tested. Which IC50 did it give?
The IC50 was 1.22 µM.

Which IC50 does the source give for O=c1[nH]c(=O)n(C2CN(S(=O)(=O)c3ccccc3[N+](=O)[O-])c3ccccc3CO2)cc1F (stereo unspecified) here?
The IC50 was 19.7 µM.

For c1ccc(Sc2ncnc3ncn(C4CNc5ccccc5CO4)c23)cc1 (stereo unspecified), which IC50 is on record?
The IC50 was 48.9 µM.

O=c1ccn(C2COc3ccccc3CO2)c(=O)[nH]1 (stereo unspecified) was tested. Which IC50 did it give?
The IC50 was 1.25 µM.

Which IC50 does the source give for O=S1(=O)CC(n2cnc3c(Cl)ncnc32)OCc2ccccc21 (stereo unspecified) here?
Its IC50 is 1.25 µM.

How did the IC50 turn out when O=[N+]([O-])c1ccccc1S(=O)(=O)N1CC(n2cnc3c(Cl)ncnc32)OCc2ccccc21 (stereo unspecified) was run?
Its IC50 is 2.1 µM.

Which IC50 does the source give for COC(CN(c1ccccc1CO)S(=O)(=O)c1ccc([N+](=O)[O-])cc1)n1cc(F)c(=O)[nH]c1=O (stereo unspecified) here?
Its IC50 is 55.2 µM.

For O=c1[nH]c(=O)n(C2CNc3ccccc3CO2)cc1F (stereo unspecified), which IC50 is on record?
The IC50 was > 100 µM.

Clc1ncnc2c1ncn2C1CSc2ccccc2CO1 (stereo unspecified) was tested. Which IC50 did it give?
Its IC50 is 1.25 µM.

COC(CNc1ccccc1CO)n1cc(F)c(=O)[nH]c1=O (stereo unspecified) was tested. Which IC50 did it give?
The IC50 was 36 µM.

For O=C(OCC1c2ccccc2-c2ccccc21)N1CC(n2cnc3c(Cl)ncnc32)OCc2ccccc21 (racemic), which IC50 is on record?
The IC50 was 0.67 µM.

Same assay, conditions: mcf7

With COC(CN(c1ccccc1CO)S(=O)(=O)c1ccccc1[N+](=O)[O-])n1cnc2c(Cl)ncnc21 (stereo in doubt; 51) as the compound, how does the IC50 read?
The IC50 was 11.3 µM.

What follows are compounds tested on MCF7 (assay: Induction of GP132 gene expression in human MCF7 cells by microarray). Details: not given.
Format: functional, cell-based

With O=C(OCC1c2ccccc2-c2ccccc21)N1CC(n2cnc3c(Cl)ncnc32)OCc2ccccc21 (racemic) as the compound, how does the Activity read?
The Activity was “Active”.

What follows are compounds tested on MCF7 (assay: Induction of ERN1 gene expression in human MCF7 cells by microarray). Details: not given.
Format: functional, cell-based

With O=C(OCC1c2ccccc2-c2ccccc21)N1CC(n2cnc3c(Cl)ncnc32)OCc2ccccc21 (racemic) as the compound, how does the Activity read?
The Activity was “Active”.
